target: T1, GLP-1R (Homo sapiens, UniProt P43220); experiment: GLP-1R activation cAMP assay (Assay 1 or Assay 2); assay type: cell-based; conditions: cAMP increase in CHO cells stably expressing GLP-1R; compounds run on one of the two cAMP assays
T1 construct: host or cells: CHO cells
In short: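 EC50 values come from a sigmoidal fit of HTRF-detected cAMP rise versus log agonist concentration. GLP-1R-expressing CHO cells, equilibrated 1 h at 37 °C in HBSS with HEPES and BSA, received a 10-point compound dose series for 30 min before detection.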

T1 sequence (P43220 24-463): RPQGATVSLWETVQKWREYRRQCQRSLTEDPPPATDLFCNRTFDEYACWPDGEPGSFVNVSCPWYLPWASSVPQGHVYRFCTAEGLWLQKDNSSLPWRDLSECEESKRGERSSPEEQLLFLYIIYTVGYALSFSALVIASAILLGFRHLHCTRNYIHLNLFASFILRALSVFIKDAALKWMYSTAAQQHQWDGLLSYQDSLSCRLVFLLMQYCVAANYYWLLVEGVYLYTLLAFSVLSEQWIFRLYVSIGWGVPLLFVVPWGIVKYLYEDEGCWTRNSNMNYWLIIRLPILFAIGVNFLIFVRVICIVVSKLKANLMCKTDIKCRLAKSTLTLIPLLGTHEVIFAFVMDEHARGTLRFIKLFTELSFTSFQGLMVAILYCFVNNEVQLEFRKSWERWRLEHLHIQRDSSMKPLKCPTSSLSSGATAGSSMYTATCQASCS

SMILES | EC50 [pM]
O=C(O)c1ccc2nc(Cc3cc(F)c(-c4cccc(OCc5ncc(-c6cncnc6)s5)n4)cc3F)n(C[C@@H]3CCO3)c2c1 [Example 105, (S)-2-(2,5-difluoro-4-(6-((5-(pyrimidin-5-yl)thiazol-2-yl)methoxy)pyridin-2-yl)benzyl)-1-(oxetan-2-ylmethyl)-1H-benzo[d]imidazole-6-carboxylic acid] | 140
O=C(O)c1ccc2nc(Cc3cc(F)c(-c4cccc(OCc5ncc(-c6cnccn6)s5)n4)cc3F)n(C[C@@H]3CCO3)c2c1 [Example 106, (S)-2-(2,5-difluoro-4-(6-((5-(pyrazin-2-yl)thiazol-2-yl)methoxy)pyridin-2-yl)benzyl)-1-(oxetan-2-ylmethyl)-1H-benzo[d]imidazole-6-carboxylic acid] | 140
O=C(O)c1ccc2nc(Cc3cc(F)c(-c4cccc(OCc5ncc(-c6ccccn6)s5)n4)cc3F)n(C[C@@H]3CCO3)c2c1 [Example 107, (S)-2-(2,5-difluoro-4-(6-((5-(pyridin-2-yl)thiazol-2-yl)methoxy)pyridin-2-yl)benzyl)-1-(oxetan-2-ylmethyl)-1H-benzo[d]imidazole-6-carboxylic acid] | 310
O=C(O)c1ccc2nc(Cc3cc(F)c(-c4cccc(OCc5ncc(-c6cccnc6)s5)n4)cc3F)n(C[C@@H]3CCO3)c2c1 [Example 108, (S)-2-(2,5-difluoro-4-(6-((5-(pyridin-3-yl)thiazol-2-yl)methoxy)pyridin-2-yl)benzyl)-1-(oxetan-2-ylmethyl)-1H-benzo[d]imidazole-6-carboxylic acid] | 180
Cn1cc(-c2cc(COc3cccc(-c4cc(F)c(Cc5nc6ccc(C(=O)O)cc6n5C[C@@H]5CCO5)cc4F)n3)nn2C)cn1 [Example 109, (S)-2-(4-(6-((1′,2-dimethyl-1′H,2H-[3,4′-bipyrazol]-5-yl)methoxy)pyridin-2-yl)-2,5-difluorobenzyl)-1-(oxetan-2-ylmethyl)-1H-benzo[d]imidazole-6-carboxylic acid] | 620
Cn1nc(COc2cccc(-c3cc(F)c(Cc4nc5ccc(C(=O)O)cc5n4C[C@@H]4CCO4)cc3F)n2)cc1-c1cnn(C(F)F)c1 [Example 110, (S)-2-(4-(6-((1′-(difluoromethyl)-2-methyl-1′H,2H-[3,4′-bipyrazol]-5-yl)methoxy)pyridin-2-yl)-2,5-difluorobenzyl)-1-(oxetan-2-ylmethyl)-1H-benzo[d]imidazole-6-carboxylic acid] | 950
Cn1cc(C#Cc2cnc(COc3cccc(-c4cc(F)c(Cc5nc6c(F)cc(C(=O)O)cc6n5C[C@@H]5CCO5)cc4F)n3)s2)cn1 [Example 111, 2-[[2,5-difluoro-4-[6-[[5-[2-(1-methylpyrazol-4-yl)ethynyl]thiazol-2-yl]methoxy]-2-pyridyl]phenyl]methyl]-7-fluoro-3-[[(2S)-oxetan-2-yl]methyl]benzimidazole-5-carboxylic acid] | 50
Cn1cc(C#Cc2ccc(COc3cccc(-c4cc(F)c(Cc5nc6ccc(C(=O)O)cc6n5C[C@@H]5CCO5)cc4F)n3)s2)cn1 [Example 112, (S)-2-(2,5-difluoro-4-(6-((5-((1-methyl-1H-pyrazol-4-yl)ethynyl)thiophen-2-yl)methoxy)pyridin-2-yl)benzyl)-1-(oxetan-2-ylmethyl)-1H-benzo[d]imidazole-6-carboxylic acid] | 130
CC1(C#Cc2ccc(COc3cccc(-c4cc(F)c(Cc5nc6ccc(C(=O)O)cc6n5C[C@@H]5CCO5)cc4F)n3)s2)COC1 [Example 113, (S)-2-(2,5-difluoro-4-(6-((5-((3-methyloxetan-3-yl)ethynyl)thiophen-2-yl)methoxy)pyridin-2-yl)benzyl)-1-(oxetan-2-ylmethyl)-1H-benzo[d]imidazole-6-carboxylic acid] | 160
Cn1cc(C#Cc2cnc(COc3cccc(-c4cc(F)c(Cc5nc6ccc(C(=O)O)cc6n5C[C@@H]5CCO5)cc4F)n3)s2)cn1 [Example 114, (S)-2-(2,5-difluoro-4-(6-((5-((1-methyl-1H-pyrazol-4-yl)ethynyl)thiazol-2-yl)methoxy)pyridin-2-yl)benzyl)-1-(oxetan-2-ylmethyl)-1H-benzo[d]imidazole-6-carboxylic acid] | 110
CC1(C#Cc2cnc(COc3cccc(-c4cc(F)c(Cc5nc6ccc(C(=O)O)cc6n5C[C@@H]5CCO5)cc4F)n3)s2)COC1 [Example 115, (S)-2-(2,5-difluoro-4-(6-((5-((3-methyloxetan-3-yl)ethynyl)thiazol-2-yl)methoxy)pyridin-2-yl)benzyl)-1-(oxetan-2-ylmethyl)-1H-benzo[d]imidazole-6-carboxylic acid] | 70
O=C(O)c1ccc2nc(Cc3cc(F)c(-c4cccc(OCc5ncc(C#Cc6cncs6)s5)n4)cc3F)n(C[C@@H]3CCO3)c2c1 [Example 116, (S)-2-(2,5-difluoro-4-(6-((5-(thiazol-5-ylethynyl)thiazol-2-yl)methoxy)pyridin-2-yl)benzyl)-1-(oxetan-2-ylmethyl)-1H-benzo[d]imidazole-6-carboxylic acid] | 150
Cn1cc(C#Cc2cc(F)c(COc3cccc(-c4cc(F)c(Cc5nc6ccc(C(=O)O)cc6n5C[C@@H]5CCO5)cc4F)n3)s2)cn1 [Example 117, (S)-2-(2,5-difluoro-4-(6-((3-fluoro-5-((1-methyl-1H-pyrazol-4-yl)ethynyl)thiophen-2-yl)methoxy)pyridin-2-yl)benzyl)-1-(oxetan-2-ylmethyl)-1H-benzo[d]imidazole-6-carboxylic acid] | 280
O=C(O)c1ccc2nc(Cc3cc(F)c(-c4cccc(OCc5ncc(C#Cc6cnn(C7CC7)c6)s5)n4)cc3F)n(C[C@@H]3CCO3)c2c1 [Example 118, (S)-2-(4-(6-((5-((1-cyclopropyl-1H-pyrazol-4-yl)ethynyl)thiazol-2-yl)methoxy)pyridin-2-yl)-2,5-difluorobenzyl)-1-(oxetan-2-ylmethyl)-1H-benzo[d]imidazole-6-carboxylic acid] | 440
O=C(O)c1ccc2nc(Cc3cc(F)c(-c4cccc(OCc5ccn(-c6ccccc6)n5)n4)cc3F)n(C[C@@H]3CCO3)c2c1 [Example 120, (S)-2-(2,5-difluoro-4-(6-((1-phenyl-1H-pyrazol-3-yl)methoxy)pyridin-2-yl)benzyl)-1-(oxetan-2-ylmethyl)-1H-benzo[d]imidazole-6-carboxylic acid] | 2840
COCCn1c(Cc2cc(F)c(-c3cccc(OCc4cnn(-c5ccccc5)c4)n3)cc2F)nc2ccc(C(=O)O)cc21 [Example 121, 2-(2,5-difluoro-4-(6-((1-phenyl-1H-pyrazol-4-yl)methoxy)pyridin-2-yl)benzyl)-1-(2-methoxyethyl)-1H-benzo[d]imidazole-6-carboxylic acid] | 730000
COCCn1c(Cc2cc(F)c(-c3cccc(OCc4cn(-c5ccccc5)cn4)n3)cc2F)nc2ccc(C(=O)O)cc21 [Example 122, 2-(2,5-difluoro-4-(6-((1-phenyl-1H-imidazol-4-yl)methoxy)pyridin-2-yl)benzyl)-1-(2-methoxyethyl)-1H-benzo[d]imidazole-6-carboxylic acid] | 695000
O=C(O)c1ccc2nc(Cc3cc(F)c(-c4cccc(OCc5ccc(C(F)(F)F)s5)n4)cc3F)n(C[C@@H]3CCO3)c2c1 [Example 123, (S)-2-(2,5-difluoro-4-(6-((5-(trifluoromethyl)thiophen-2-yl)methoxy)pyridin-2-yl)benzyl)-1-(oxetan-2-ylmethyl)-1H-benzo[d]imidazole-6-carboxylic acid] | 2650
Cn1ccc(COc2cccc(-c3cc(F)c(Cc4nc5ccc(C(=O)O)cc5n4C[C@@H]4CCO4)cc3F)n2)n1 [Example 124, (S)-2-(2,5-difluoro-4-(6-((1-methyl-1H-pyrazol-3-yl)methoxy)pyridin-2-yl)benzyl)-1-(oxetan-2-ylmethyl)-1H-benzo[d]imidazole-6-carboxylic acid] | 810
O=C(O)c1ccc2nc(Cc3cc(F)c(-c4cccc(OCc5ccn(-c6ccncc6)n5)n4)cc3F)n(C[C@@H]3CCO3)c2c1 [Example 125, (S)-2-(2,5-difluoro-4-(6-((1-(pyridin-4-yl)-1H-pyrazol-3-yl)methoxy)pyridin-2-yl)benzyl)-1-(oxetan-2-ylmethyl)-1H-benzo[d]imidazole-6-carboxylic acid] | 3640
N#Cc1ccc(COc2cccc(-c3cc(F)c(Cc4nc5ccc(C(=O)O)cc5n4C[C@@H]4CCO4)cc3F)n2)s1 [Example 126, (S)-2-(4-(6-((5-cyanothiophen-2-yl)methoxy)pyridin-2-yl)-2,5-difluorobenzyl)-1-(oxetan-2-ylmethyl)-1H-benzo[d]imidazole-6-carboxylic acid] | 310
NC(=O)c1ccc(COc2cccc(-c3cc(F)c(Cc4nc5ccc(C(=O)O)cc5n4C[C@@H]4CCO4)cc3F)n2)s1 [Example 127, (S)-2-(4-(6-((5-carbamoylthiophen-2-yl)methoxy)pyridin-2-yl)-2,5-difluorobenzyl)-1-(oxetan-2-ylmethyl)-1H-benzo[d]imidazole-6-carboxylic acid] | 3720
N#Cc1cc(COc2cccc(-c3cc(F)c(Cc4nc5ccc(C(=O)O)cc5n4C[C@@H]4CCO4)cc3F)n2)cs1 [Example 128, (S)-2-(4-(6-((5-cyanothiophen-3-yl)methoxy)pyridin-2-yl)-2,5-difluorobenzyl)-1-(oxetan-2-ylmethyl)-1H-benzo[d]imidazole-6-carboxylic acid] | 1950
NC(=O)c1cc(COc2cccc(-c3cc(F)c(Cc4nc5ccc(C(=O)O)cc5n4C[C@@H]4CCO4)cc3F)n2)cs1 [Example 129, (S)-2-(4-(6-((5-carbamoylthiophen-3-yl)methoxy)pyridin-2-yl)-2,5-difluorobenzyl)-1-(oxetan-2-ylmethyl)-1H-benzo[d]imidazole-6-carboxylic acid] | 3170
N#Cc1csc(COc2cccc(-c3cc(F)c(Cc4nc5ccc(C(=O)O)cc5n4C[C@@H]4CCO4)cc3F)n2)c1 [Example 130, (S)-2-(4-(6-((4-cyanothiophen-2-yl)methoxy)pyridin-2-yl)-2,5-difluorobenzyl)-1-(oxetan-2-ylmethyl)-1H-benzo[d]imidazole-6-carboxylic acid] | 570

— US20250312352A1, “GLP-1R MODULATING COMPOUNDS” (Gilead Sciences, Inc., priority 2021, published 2025)
